# Laboratory results as given in patent US20240360114A1 (SIRONAX LTD., priority 2021, published 2024).
# Test system: HT-1080 cells
# Experiment: HT-1080 cell viability assay (ferroptosis induced by RSL3, Cell Titer-Glo)
# Format: cell-based
# Details: Homo sapiens, HT-1080, 20 h, ferroptosis inducer RSL3, 20 hours, ferroptosis inhibitory activity, Table 2
# How it was run: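 EC50 fitted by sigmoidal dose-response regression on luminescent viability data normalized to untreated cells. Compounds ran as a 10-point, 3-fold series from 1.1 μM alongside RSL3 for 20 hours, after overnight seeding.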
row,EC50,Structure (SMILES)
1,0.1 to 1 µM,"CC1(C)CCC(c2ccc(NC3CNC(=O)C3)cc2)CC1 (stereo not drawn) [Compound 141, 4-((4-(4,4-dimethylcyclohexyl)phenyl)amino)pyrrolidin-2-one]"
2,0.0001 to 0.1 µM,"CC1(C)CCC(c2ccc(NC3CC(C(N)=O)C3)cc2)CC1 (stereo not drawn) [Compound 145, 3-((4-(4,4-dimethylcyclohexyl)phenyl)amino)cyclobutane-1-carboxamide]"
3,0.0001 to 0.1 µM,"CNC1CCC(Nc2ccc(C(C)(C)C)cc2)CC1 (stereo not drawn) [Compound 147, N1-(4-(tert-butyl)phenyl)-N4-methylcyclohexane-1,4-diamine]"
4,0.1 to 1 µM,"CC(C)(C)c1ccc(NC2CCCNC2)cc1 (stereo not drawn) [Compound 150, N-(4-(tert-butyl)phenyl)piperidin-3-amine]"
5,0.0001 to 0.1 µM,CC1(C)CCC(c2ccc(NC3CCC(O)C3)cc2)CC1 (stereo not drawn) [Compound 151]
6,0.1 to 1 µM,"CC(C)(C)c1ccc(NC2CCCCC2N)cc1 (stereo not drawn) [Compound 152, N1-(4-(tert-butyl)phenyl)cyclohexane-1,2-diamine]"
7,0.1 to 1 µM,"CC1(C)CCC(c2ccc(NC3CCN(C(=O)[C@H]4CNC(=O)N4)CC3)cc2)CC1 [Compound 154, (R)-4-(4-((4-(4,4-dimethylcyclohexyl)phenyl)amino)piperidine-1-carbonyl) imidazolidin-2-one]"
8,0.0001 to 0.1 µM,CC1(C)CCC(c2ccc(NC3CCC(NC(=O)[C@H]4CNC(=O)N4)CC3)cc2)CC1 (stereo partly drawn) [Compound 156C]
9,0.1 to 1 µM,"CC1(C)CCC(c2ccc(NCCNC(=O)[C@H]3CNC(=O)N3)cc2)CC1 [Compound 158, (R)—N-(2-((4-(4,4-dimethylcyclohexyl)phenyl)amino)ethyl)-2-oxoimidazolidine-4-carboxamide]"
10,1 to 10 µM,"NC1CCC(Nc2ccc(F)c(F)c2)CC1 (stereo not drawn) [Compound 160, N1-(3,4-difluorophenyl)cyclohexane-1,4-diamine]"
11,1 to 10 µM,"NC1CCC(Nc2ccc(Cl)cc2)CC1 (stereo not drawn) [Compound 161, N1-(4-chlorophenyl)cyclohexane-1,4-diamine]"
12,0.1 to 1 µM,"NC1CCC(Nc2ccc3c(c2)CCC3)CC1 (stereo not drawn) [Compound 162, N1-(2,3-dihydro-1H-inden-5-yl)cyclohexane-1,4-diamine]"
13,1 to 10 µM,"NC1CCC(Nc2cccnc2)CC1 (stereo not drawn) [Compound 163, N1-(pyridin-3-yl)cyclohexane-1,4-diamine]"
14,1 to 10 µM,"NC1CCC(Nc2cccc3c2CCO3)CC1 (stereo not drawn) [Compound 164, N1-(2,3-dihydrobenzofuran-4-yl)cyclohexane-1,4-diamine]"
15,1 to 10 µM,"NC1CCC(Nc2ccc(Br)cc2)CC1 (stereo not drawn) [Compound 165, N1-(4-bromophenyl)cyclohexane-1,4-diamine]"
16,1 to 10 µM,"NC1CCC(Nc2ccc3c(c2)OCC3)CC1 (stereo not drawn) [Compound 166, N1-(2,3-dihydrobenzofuran-6-yl)cyclohexane-1,4-diamine]"
17,0.1 to 1 µM,"CC1(C)CCC(c2ccc(NC3CCC(CN)CC3)cn2)CC1 (stereo not drawn) [Compound 167, N-(4-(aminomethyl)cyclohexyl)-6-(4,4-dimethylcyclohexyl)pyridin-3-amine]"
18,1 to 10 µM,"CC(C)(C)c1ccc(NC2CCC(NCC(F)(F)F)CC2)cc1 (stereo not drawn) [Compound 168A, N-(4-(tert-butyl)phenyl)-N-(2,2,2-trifluoroethyl)cyclohexane-1,4-diamine]"
19,0.1 to 1 µM,"COCCNC1CCC(Nc2ccc(C(C)(C)C)cc2)CC1 (stereo not drawn) [Compound 169, 1-N-(4-(tert-butyl)phenyl)-N4-(2-methoxyethyl)cyclohexane-1,4-diamine]"
20,1 to 10 µM,"NC1CCC(Nc2ccc(C3CCOCC3)cc2)CC1 (stereo not drawn) [Compound 170, 1-N-(4-(tetrahydro-2H-pyran-+-yl)phenyl)cyclohexane-1,4-diamine]"
21,0.0001 to 0.1 µM,"CC1(C)CCC(c2ccc(NCCCN3CCCC3)cc2)CC1 [Compound 171, 4-(4,4-dimethylcyclohexyl)-N-(3-(pyrrolidin-1-yl)propyl)aniline]"
22,0.0001 to 0.1 µM,"CCC(C)(C)c1ccc(NC2CCC(C)(N)CC2)cc1 (stereo not drawn) [Compound 172, 1-methyl-N4-(4-(tert-pentyl)phenyl)cyclohexane-1,4-diamine]"
23,0.0001 to 0.1 µM,"CCCOc1ccc(NC2CCC(N)CC2)cc1 (stereo not drawn) [Compound 174, N1-(4-propoxyphenyl)cyclohexane-1,4-diamine]"
24,1 to 10 µM,"CC(C)(C)c1ccc(NCCn2ccnc2)cc1 [Compound 175, N-(2-(1H-imidazol-1-yl)ethyl)-4-(tert-butyl)aniline]"
25,0.1 to 1 µM,"CC1(C)CCC(c2ccc(NCCN)cc2)CC1 [Compound 176, N1-(4-(4,4-dimethylcyclohexyl)phenyl)ethane-1,2-diamine]"

row,EC50,Structure (SMILES)
1,1 to 10 µM,"CC(C)(C)c1ccc(NCCc2cnc[nH]2)cc1 [Compound 177, N-(2-(1H-imidazol-5-yl)ethyl)-4-(tert-butyl)aniline]"
2,1 to 10 µM,"CC(C)(C)c1ccc(NCCOCCO)cc1 [Compound 179, 2-(2-((4-(tert-butyl)phenyl)amino)ethoxy) ethan-1-ol]"
3,0.1 to 1 µM,"NC1CCC(Nc2ccc(C3CC3)cc2)CC1 (stereo not drawn) [Compound 181, N1-(4-cyclopropylphenyl)cyclohexane-1,4-diamine]"
4,0.1 to 1 µM,"Cc1cc(C(C)(C)C)ccc1NC1CCC(N)CC1 (stereo not drawn) [Compound 184, N1-(4-(tert-butyl)-2-methylphenyl)cyclohexane-1,4-diamine]"
5,1 to 10 µM,"Cc1nc(N2CC(C)OC(C)(C)C2)ccc1NC1CC2(CC(N)C2)C1 (stereo not drawn) [Compound 185, N2-(2-methyl-6-(2,2,6-trimethylmorpholino)pyridin-3-yl)spiro[3.3]heptane-2,6-diamine]"
6,1 to 10 µM,"CC(C)(C)c1ccc(NC2CCC(N)CC2)c(C#N)c1 (stereo not drawn) [Compound 187, 2-((4-aminocyclohexyl)amino)-5-(tert-butyl)benzonitrile]"
7,0.1 to 1 µM,"CCCC(CCC)Nc1ccc(C(C)(C)C)cc1 [Compound 188, 4-(tert-butyl)-N-(heptan-4-yl)aniline]"
8,1 to 10 µM,"CC(C)(C)c1ccc(NC2CCC(N)(C(=O)O)CC2)cc1 (stereo not drawn) [Compound 189, 1-amino-4-((4-(tert-butyl)phenyl)amino)cyclohexane-1-carboxylic acid]"
9,0.1 to 1 µM,"CC(C)(C)c1ccc(NC2CCC(N)CC2)c(F)c1 (stereo not drawn) [Compound 190, N1-(4-(tert-butyl)-2-fluorophenyl)cyclohexane-1,4-diamine]"
10,0.1 to 1 µM,"CC(C)(C)c1ccc(NC2CCC(C(N)=O)CC2)cc1 (stereo not drawn) [Compound 192, 4-((4-(tert-butyl)phenyl)amino)cyclohexane-1-carboxamide]"
11,0.1 to 1 µM,"CNC1CCC(Nc2ccc(C(C)(C)C)cc2)C1 (stereo not drawn) [Compound 194, N1-(4-(tert-butyl)phenyl)-N3-methylcyclopentane-1,3-diamine]"
12,0.0001 to 0.1 µM,"CN(C)CC1CCC(Nc2ccc(C(C)(C)C)cc2)CC1 (stereo not drawn) [Compound 196, 4-(tert-butyl)-N-(4-((dimethylamino)methyl)cyclohexyl)aniline]"
13,0.0001 to 0.1 µM,"CC(C)(C)c1ccc(N[C@H]2CC[C@H](N)CC2)cc1 [Compound 197, (1r,4r)-N1-(4-(tert-butyl)phenyl)cyclohexane-1,4-diamine]"
14,0.1 to 1 µM,"CC(C)(C)c1ccc(N[C@H]2CC[C@@H](N)CC2)cc1 [Compound 198, (1s,4s)-N1-(4-(tert-butyl)phenyl)cyclohexane-1,4-diamine]"
15,1 to 10 µM,"NC1CCC(Nc2ccncc2)CC1 (stereo not drawn) [Compound 199, N1-(pyridin-4-yl)cyclohexane-1,4-diamine]"
16,0.1 to 1 µM,"CC(C)(C)c1ccc(NC2CCC(N)CC2)cc1Cl (stereo not drawn) [Compound 201, N1-(4-(tert-butyl)-3-chlorophenyl)cyclohexane-1,4-diamine]"
17,1 to 10 µM,"CC(C)(C)c1ccc(NCCN2CCCC2)cc1 [Compound 202, 2-(pyrrolidin-1-yl) acetaldehyde--4-(tert-butyl)-N-(2-(pyrrolidin-1-yl)ethyl)aniline-4-(tert-butyl)aniline]"
18,0.1 to 1 µM,"CC1(C)CCC(c2ccc(NC(C)(C)CN3CCCC3)cc2)CC1 [Compound 203, 4-(4,4-dimethylcyclohexyl)-N-(2-methyl-1-(pyrrolidin-1-yl)propan-2-yl)aniline]"
19,0.1 to 1 µM,"CC(C)(C)c1ccc(NC2CCc3nc(N)sc3C2)cc1 (stereo not drawn) [Compound 204, 4-N-(4-(tert-butyl)phenyl)-4,5,6,7-tetrahydrobenzo[d]thiazole-2,6-diamine]"
20,1 to 10 µM,"CC(C)(C)c1ccc(NCCN2CCOCC2)cc1 [Compound 206, U4-(tert-butyl)-N-(2-morpholinoethyl)aniline]"
21,1 to 10 µM,"CCc1ccc(NC2CCC(N)CC2)cn1 (stereo not drawn) [Compound 208, N1-(6-ethylpyridin-3-yl)cyclohexane-1,4-diamine]"
22,0.0001 to 0.1 µM,"CC1(C)CCC(c2ccc(NCCCN)cc2)CC1 [Compound 209, 1-N-(4-(4,4-dimethylcyclohexyl)phenyl)propane-1,3-diamine]"
23,1 to 10 µM,"Cc1cc(C)c(NC2CCC(CN)CC2)c(C)c1 (stereo not drawn) [Compound 210, N-[4-(aminomethyl)cyclohexyl]-2,4,6-trimethylaniline]"
24,1 to 10 µM,"COCCN(C)CCNc1ccc(C(C)(C)C)cc1 [Compound 211, N1-(4-(tert-butyl)phenyl)-N2-(2-methoxyethyl)-N2-methylethane-1,2-diamine]"

row,Structure (SMILES),EC50
1,"CC(C)(C)Nc1ccc(C2CCNCC2)cc1 [Compound 207, N-(tert-butyl)-4-(piperidin-4-yl)aniline]",1 to 10 µM

# Same assay, conditions: Homo sapiens, ferroptosis inducer RSL3, 20 hours, ferroptosis inhibitory activity, Table 2
row,Structure (SMILES),EC50
1,"CCCCN(CCCC)CCNc1ccc(C2CCCCC2)cc1 [Compound 173, N1,N1-dibutyl-N2-(4-cyclohexylphenyl)ethane-1,2-diamine]",0.1 to 1 µM
2,"CC(C)(C)c1ccc(NC2CCN(C(N)=O)CC2)cc1 [Compound 178, 4-((4-(tert-butyl)phenyl)amino)piperidine-1-carboxamide]",1 to 10 µM
3,"CC(C)(C)c1ccc(NC2CCN(S(N)(=O)=O)CC2)cc1 [Compound 180, 4-((4-(tert-butyl)phenyl)amino)piperidine-1-sulfonamide]",0.1 to 1 µM

# Same assay, conditions: ferroptosis inducer RSL3, 20 hours, ferroptosis inhibitory activity, Table 2
row,EC50,Structure (SMILES)
1,0.1 to 1 µM,"CC1CN(c2ccc(NC3CC4(CC(N)C4)C3)cc2F)CC(C)N1CC(F)(F)F (stereo not drawn) [Compound 186, N2-(4-(3,5-dimethyl-4-(2,2,2-trifluoroethyl)piperazin-1-yl)-3-fluorophenyl) spiro-[3.3]heptane-2,6-diamine]"
